Assay results reported in patent US8481526B2, “Fluoroquinolone carboxylic acid molecular crystals” (Bausch & Lomb Incorporated, priority 2009, dated 2013).
≈ marks a conversion by molar mass, not a printed value. Structures can show the parent of a compound that is named as a salt. Where two headings read alike, the source gives them in different places.

Legend:
Type in all cases: physicochemical
[1] = Equilibrium solubility in various solvents (HPLC); settings: Water, 22° C. ± 2° C.; for solubility: saturated solution pH 3.6 (HCl salt), 8.1 (free base), solubility of free base
Experimental: (§1) A reversed phase gradient HPLC method was used for the analysis of besifloxacin solubility samples. The conditions are listed below:
The solubility of besifloxacin HCl was evaluated in several organic solvents. An excess of drug substance was equilibrated with 10 mL of each solvent for 24-48 hours at room temperature (24±3° C.) using either a small magnetic stirrer or a Burrell Wrist Action shaker. Samples were inspected visually, and if needed, more drug substance was added until excess solid persisted after stirring. The samples were then filtered through 0.45 μm Nylon or PVDF filters or centrifuged at 10,000 RPM for 15 minutes. The filtrate or the supernatant was diluted as needed using the HPLC diluent and analyzed by HPLC. When solubility was greater than 100 mg/mL, no attempt was made to determine the equilibrium solubility and the compound was described as “freely soluble” as per the USP definition.
(§2) The solubility of besifloxacin HCl, lot 050956330, was determined in distilled water as a function of pH by adjusting the pH with 1 N NaOH. Suspensions of the drug substance (about 50-150 mg in 10 mL distilled water) were equilibrated for 72-96 hours using a Burrell shaker. Laboratory temperature was 22±2° C. The pH of the suspensions was measured in the presence of excess solid prior to sampling. The samples were centrifuged in an Enprotech ISS-I13 centrifuge at 10,000 RPM for 15 minutes or filtered through 0.45[…] or PVDF filters. When samples were filtered, a volume of filtrate was discarded to allow saturation of filters. The supernatant or the filtrate was diluted as needed using the HPLC diluent prior to analysis. Sample concentration was monitored at varying time intervals to ensure complete equilibration. Also, sample concentration was reported as besifloxacin free base concentration rather than HCl salt.

[2] = Equilibrium solubility in various solvents (HPLC); settings: 22° C. ± 2° C.; for solubility: solubility of free base
[3] = pH-dependence of solubility in distilled water (HPLC); settings: for solubility: distilled water, aqueous buffer, thermodynamic from solid
Experimental: as §1, §2

[4] = Moisture sorption analysis (VTI moisture sorption balance); settings: 25° C.; for Hygroscopicity / moisture sorption behaviour: 10% to 90% RH
Experimental: Moisture uptake and loss was monitored as a function of relative humidity using a VTI, moisture sorption balance. A 30-40 mg sample was loaded into a tared glass sample holder. The initial weight of the sample was accurately recorded. The sample was then dried under a steady stream of nitrogen for 2 hours at 40° C. After initial drying, the sample mass was equilibrated with dry nitrogen at 25° C. and the sample was exposed to progressive stepwise increases in humidity under controlled conditions. The sample was equilibrated for two hours at each new relative humidity. The moisture sorption behavior was monitored at 10% to 90% RH in 10% RH intervals and desorption was monitored from 90% to 10% RH. The % moisture gain/loss was recorded vs. the % RH.

[5] = XRPD of excess solids isolated from equilibrated solubility samples (form conversion); settings: for Form conversion in aqueous media: pH>4
Experimental: Approximately 20-100 mg of powder was loaded onto a low background sample holder. Samples were analyzed on a Rigaku Miniflex (scanning configuration) and scanned from 5-60°, 2-theta at a rate of 1°2θ/minute with a sampling rate of 0.02 seconds. Patterns were analyzed using Jade software version 7.5, provided by Materials Data Inc.
Excess solids were isolated from equilibrated samples and analyzed by XRPD. […] As discussed below (XRPD section), this phase was identified as the crystalline besifloxacin free base.

[6] = pKa and intrinsic solubility from fit of pH-solubility profile to Henderson-Hasselbach equation; settings: for solubility: aqueous buffer; for pKa: estimated from fit of pH-solubility profile
Text: To determine pKas that were consistent with observed solubility behavior, the pH dependent solubility was fitted to the following expression: S=So*(10^pKa1-pH+10^pH-pKa2+1) where S=solubility So=intrinsic solubility (total of zwitterionic and neutral species) pKa1=dissociation constant for the carboxylic acid moiety pKa2=dissociation constant for the primary ammonium ion moiety

[7] = Acetonitrile, listed as Free base
[8] = Isopropanol, listed as Free base

## N[C@@H]1CCCCN(c2c(F)cc3c(=O)c(C(=O)O)cn(C4CC4)c3c2Cl)C1 [besifloxacin HCl salt]
[1]; listed as Besifloxacin HCL salt
  USP def: sparingly soluble
[1]; listed as Besifloxacin HCl salt
  USP def: sparingly soluble
[1]
  solubility: 10635 µg/mL
[2]; Acetonitrile
  USP def: Insoluble
  solubility: 12 µg/mL
[2]; Acetonitrile, listed as Besifloxacin HCL salt
  USP def: insoluble
[2]; Acetonitrile, listed as Besifloxacin HCl salt
  USP def: insoluble
[2]; Ethanol
  USP def: slightly soluble
  solubility: 1122 µg/mL
[2]; Ethanol, listed as Besifloxacin HCL salt
  USP def: slightly soluble
[2]; Ethanol, listed as Besifloxacin HCl salt
  USP def: slightly soluble
[2]; Isopropanol
  USP def: Insoluble
  solubility: 89 µg/mL
[2]; Isopropanol, listed as Besifloxacin HCL salt
  USP def: insoluble
[2]; Isopropanol, listed as Besifloxacin HCl salt
  USP def: insoluble
[2]; Methanol
  USP def: slightly soluble
  solubility: 9898 µg/mL
[2]; Methanol, listed as Besifloxacin HCL salt
  USP def: slightly soluble
[2]; Methanol, listed as Besifloxacin HCl salt
  USP def: slightly soluble
[2]; Water
  USP def: sparingly
[3]; pH 3.54, water, 22° C. ± 2° C., reported as free base concentration, read-out: Solubility
  solubility: 10600 µg/mL
[3]; pH 3.58, water, 22° C. ± 2° C., reported as free base concentration, read-out: Solubility
  solubility: 10200 µg/mL
[3]; pH 3.72, water, 22° C. ± 2° C., reported as free base concentration, read-out: Solubility
  solubility: 10300 µg/mL
[3]; pH 3.95, water, 22° C. ± 2° C., reported as free base concentration, read-out: Solubility
  solubility: 4180 µg/mL
[3]; pH 4.58, water, 22° C. ± 2° C., reported as free base concentration, read-out: Solubility
  solubility: 710 µg/mL
[3]; pH 4.87, water, 22° C. ± 2° C., reported as free base concentration, read-out: Solubility
  solubility: 590 µg/mL
[3]; pH 5.15, water, 22° C. ± 2° C., reported as free base concentration, read-out: Solubility
  solubility: 240 µg/mL
[3]; pH 5.17, water, 22° C. ± 2° C., reported as free base concentration, read-out: Solubility
  solubility: 270 µg/mL
[3]; pH 5.43, water, 22° C. ± 2° C., reported as free base concentration, read-out: Solubility
  solubility: 220 µg/mL
[3]; pH 5.95, water, 22° C. ± 2° C., reported as free base concentration, read-out: Solubility
  solubility: 120 µg/mL
[3]; pH 6.31, water, 22° C. ± 2° C., reported as free base concentration, read-out: Solubility
  solubility: 100 µg/mL
[3]; pH 6.45, water, 22° C. ± 2° C., reported as free base concentration, read-out: Solubility
  solubility: 100 µg/mL
[3]; pH 6.49, water, 22° C. ± 2° C., reported as free base concentration, read-out: Solubility
  solubility: 80 µg/mL
[3]; pH 6.72, water, 22° C. ± 2° C., reported as free base concentration, read-out: Solubility
  solubility: 80 µg/mL
[3]; pH 8.14, water, 22° C. ± 2° C., reported as free base concentration, read-out: Solubility
  solubility: 80 µg/mL
[3]; pH 9.11, water, 22° C. ± 2° C., reported as free base concentration, read-out: Solubility
  solubility: 80 µg/mL
[3]; pH 9.59, water, 22° C. ± 2° C., reported as free base concentration, read-out: Solubility
  solubility: 100 µg/mL
[3]; pH 9.63, water, 22° C. ± 2° C., reported as free base concentration, read-out: Solubility
  solubility: 100 µg/mL
[3]; pH 10.37, water, 22° C. ± 2° C., reported as free base concentration, read-out: Solubility
  solubility: 270 µg/mL
[3]; pH 10.85, water, 22° C. ± 2° C., reported as free base concentration, read-out: Solubility
  solubility: 850 µg/mL
[4]; listed as Besifloxacin HCl
  Hygroscopicity / moisture sorption behaviour: not hygroscopic
[5]
  Form conversion in aqueous media: dissolve and precipitate in a different crystalline form
[5]; listed as besifloxacin HCl
  Form conversion in aqueous media: convert in aqueous media (pH>4) to a new crystalline phase
[5]; aqueous pH solubility samples, pHs>3.5-4.0
  Form conversion of excess solid: converted to a different crystalline phase
[5]; equilibrated in organic solvents
  Form conversion of excess solid: no form conversions were observed

## N[C@@H]1CCCCN(c2c(F)cc3c(=O)c(C(=O)O)cn(C4CC4)c3c2Cl)C1 [besifloxacin free base, (R)-(+)-7-(3-amino-2,3,4,5,6,7-hexahydro-1H-azepin-1-yl)-1-cyclopropyl-8-chloro-6-fluoro-1,4-dihydro-4-oxoquinoline-3-carboxylic acid]
[1]; listed as Free base
  USP def: Insoluble
  solubility: 79 µg/mL
[2]; [7]
  USP def: Insoluble
  solubility: 5 µg/mL (≈ 12.7 µM)
[2]; Ethanol, listed as Free base
  USP def: Insoluble
  solubility: 33 µg/mL (≈ 83.8 µM)
[2]; [8]
  USP def: Insoluble
  solubility: 4 µg/mL (≈ 10.2 µM)
[2]; Methanol, listed as Free base
  USP def: Very slightly
  solubility: 135 µg/mL (≈ 343 µM)
[3]; 22 °C, pH 6.5 (product pH), read-out: Solubility in aqueous media
  solubility: ~100 µg/mL (≈ 254 µM)
[4]; listed as Besifloxacin free base
  Hygroscopicity / moisture sorption behaviour: sorbed moisture at all RH conditions
[4]; 90% RH
  Moisture sorbed: up to 5 % w/w

## N[C@@H]1CCCCN(c2c(F)cc3c(=O)c(C(=O)O)cn(C4CC4)c3c2Cl)C1 [besifloxacin, (R)-(+)-7-(3-amino-2,3,4,5,6,7-hexahydro-1H-azepin-1-yl)-1-cyclopropyl-8-chloro-6-fluoro-1,4-dihydro-4-oxoquinoline-3-carboxylic acid]
[3]; aqueous, pH 5.5-9.0
  Solubility description of the zwitterion: very slightly soluble
[3]; aqueous, pH range 5.5-9.0
  Solubility of the zwitterion: ~100 µg/mL
[3]; 22 °C, aqueous, pH 3, read-out: Maximum solubility as a function of pH
  solubility: ~10000 µg/mL (≈ 25400 µM)
[3]; 22 °C, aqueous, pH range 5.5-9.0, read-out: Solubility of the zwitterion
  solubility: ~100 µg/mL (≈ 254 µM)
[6]; distilled water (pH adjusted with 1 N NaOH), assumed in fit of pH-solubility profile, read-out: Intrinsic solubility
  solubility: 74 µg/mL (≈ 188 µM)
[6]; distilled water, pH adjusted with 1 N NaOH, fit of pH-solubility profile, total of zwitterionic and neutral species, read-out: Intrinsic solubility (So)
  solubility: 74 µg/mL (≈ 188 µM)
[6]; read-out: pKa of the carboxylic acid group (pKa1)
  pKa: 5.65
[6]; read-out: pKa of the primary amine (ammonium) group (pKa2)
  pKa: 9.91
